# Test results published in article PMC4476171 (Cardiovascular Diabetology, 2015).
# Experiments:
# [1] = test system: anesthetized male Sprague–Dawley rats; experiment: Renal excretory function: urine flow rate, urinary Na+, K+, Cl− excretion; assay type: in vivo, rat; conditions: anesthetized male SD rats, Figure 5
# Method: (§1) After one week of acclimation, SD rats (10–12 weeks old) were randomly divided into study groups. Rats were anesthetized with thiobutabarbital sodium (Inactin, 110 mg/kg, IP; Sigma-Aldrich, St. Louis, Missouri). Core temperature was maintained between 36 and 37°C throughout the study using a heating pad (Fine Science Tools Inc., Foster City, California). Polyethylene PE-50 tubing was inserted into the left femoral artery to permit intermittent blood sampling, and was also connected to a pressure transducer (NL108T2, Harvard Apparatus, Holliston, Massachusetts) for the measurement of blood pressure (BP) and heart rate (HR). […] Urine volumes were measured and urine was analyzed for electrolytes (Na^+, K^+, and Cl^−) and pH at multiple time points during the study. GFR and RBF were determined by inulin and PAH renal clearance at baseline and the end of the study. […]
# (§2) One group of animals received four successive infusions of saline. […] BP, HR, urinary Na^+, K^+, and Cl^− excretion were measured at baseline and at the end of each 20 minute infusion period. GFR and RBF were assessed at baseline and at the end of the last infusion period in each animal (Figure 1).
# (§3) Animals were randomized into 8 experimental groups (n = 6 - 8) (Table 1): Group 1. […] Parameters measured are the same as described in Protocol 1 (Figure 2). […]
# [2] = test system: anesthetized male Sprague–Dawley rats; experiment: Glomerular filtration rate by inulin clearance; assay type: in vivo, rat; conditions: anesthetized male SD rats
# Method: as §1, §2, §3
# [3] = test system: anesthetized male Sprague–Dawley rats; experiment: Renal blood flow by para-aminohippurate clearance; assay type: in vivo, rat; conditions: anesthetized male SD rats
# Method: as §1, §2, §3
# [4] = Plasma concentration of active GLP-1 (ELISA); assay type: in vivo, rat; conditions: anesthetized male SD rats
# Method: as §1, with “(HR). The signal from the pressure transducer was transmitted to a Ponemah data acquisition system (Data Science International, St. Paul, Minnesota). The left femoral vein was cannulated with PE-50 tubing for solution administration and compound delivery, respectively. The bladder was catheterized with PE-100 tubing to allow timed collections of urine.” for “(HR).”
# Na^+, K^+, and Cl^− concentrations in plasma and urine were measured by a Roche Modular Chemistry System (Roche Diagnostics, Indianapolis, Indiana). Hematocrit was determined using a HESKA I-STAT Hematology Analyzer (HESKA, Fribourg, Switzerland). Urine pH was measured by a pH meter (Fisher Scientific, Pittsburgh, Pennsylvania). Inulin and PAH concentrations in plasma and urine were determined by colorimetric assays. […] Plasma DPP4 activity was measured using a continuous fluorometric assay with the substrate Gly-Pro-AMC, which is cleaved by DPP4 to release the fluorescent AMC leaving group.
# [5] = test system: anesthetized male Sprague–Dawley rats; experiment: Plasma insulin; assay type: in vivo, rat; conditions: anesthetized male SD rats, mean ± SE, n = 6-8
# Method: as §1, with “(HR). The signal from the pressure transducer was transmitted to a Ponemah data acquisition system (Data Science International, St. Paul, Minnesota). The left femoral vein was cannulated with PE-50 tubing for solution administration and compound delivery, respectively. The bladder was catheterized with PE-100 tubing to allow timed collections of urine.” for “(HR).”
# [6] = test system: anesthetized male Sprague–Dawley rats; experiment: Plasma glucose; assay type: in vivo, rat; conditions: anesthetized male SD rats, mean ± SE, n = 6-8
# Method: After one week of acclimation, SD rats (10–12 weeks old) were randomly divided into study groups. Rats were anesthetized with thiobutabarbital sodium (Inactin, 110 mg/kg, IP; Sigma-Aldrich, St. Louis, Missouri). Core temperature was maintained between 36 and 37°C throughout the study using a heating pad (Fine Science Tools Inc., Foster City, California). Polyethylene PE-50 tubing was inserted into the left femoral artery to permit intermittent blood sampling, and was also connected to a pressure transducer (NL108T2, Harvard Apparatus, Holliston, Massachusetts) for the measurement of blood pressure (BP) and heart rate (HR). The signal from the pressure transducer was transmitted to a Ponemah data acquisition system (Data Science International, St. Paul, Minnesota). The left femoral vein was cannulated with PE-50 tubing for solution administration and compound delivery, respectively. […] In addition, 0.9% saline was infused via a Y shape adapter to the left femoral vein at a rate of 0.1 ml/100 g/h. Rats were allowed to stabilize for ~1 hour before initiation of the study. The experimental protocol was initiated with a 20-minute baseline urine collection, followed by administration of either vehicle or test compound at a rate of 0.1 ml/100 g/h for 60-minutes.
# [7] = test system: anesthetized male Sprague–Dawley rats; experiment: Hematocrit; assay type: in vivo, rat; conditions: anesthetized male SD rats, mean ± SE, n = 6-8
# Method: as §1
# (§4) Na^+, K^+, and Cl^− concentrations in plasma and urine were measured by a Roche Modular Chemistry System (Roche Diagnostics, Indianapolis, Indiana). Hematocrit was determined using a HESKA I-STAT Hematology Analyzer (HESKA, Fribourg, Switzerland). Urine pH was measured by a pH meter (Fisher Scientific, Pittsburgh, Pennsylvania). Inulin and PAH concentrations in plasma and urine were determined by colorimetric assays. […]
# [8] = test system: anesthetized male Sprague–Dawley rats; experiment: Plasma K+ concentration; assay type: in vivo, rat; conditions: anesthetized male SD rats, mean ± SE, n = 6-8
# Method: as §1, §4
# [9] = test system: anesthetized male Sprague–Dawley rats; experiment: Heart rate recorded from indwelling femoral artery catheter; assay type: in vivo, rat; conditions: anesthetized male SD rats, mean ± SE, n = 6-8
# Method: as §1, §2
# (§5) Animals were randomized into 8 experimental groups (n = 6 - 8) (Table 1): Group 1. […] Parameters measured are the same as described in Protocol 1 (Figure 2).
# [10] = test system: anesthetized male Sprague–Dawley rats; experiment: Urine pH; assay type: in vivo, rat; conditions: anesthetized male SD rats, mean ± SE, n = 6-8
# Method: as §1, §4
# [11] = test system: anesthetized male Sprague–Dawley rats; experiment: Blood pressure recorded from indwelling femoral artery catheter; assay type: in vivo, rat; conditions: anesthetized male SD rats, mean ± SE, n = 6-8
# Method: as §1, §2, §5
# DPP4 = biological target: T1, DPP4 (Rattus norvegicus, UniProt P14740); experiment: Plasma DPP4 activity, continuous fluorometric assay with Gly-Pro-AMC; assay type: in vivo; conditions: anesthetized male SD rats, MK-0626 1 mg/kg iv bolus, substrate Gly-Pro-AMC
# T1 construct: from tissue; host or cells: plasma of Sprague-Dawley rats
# Method: as §1, §4
# [12] = group MK-0626 + Saline, baseline = 20 min period prior to IV administration
# [13] = MK-0626 1 mg/kg iv bolus followed by saline iv infusion, end of study
# [14] = MK-0626 1 mg/kg iv bolus followed by saline iv infusion
# T1 sequence (P14740 37-767 limits assumed): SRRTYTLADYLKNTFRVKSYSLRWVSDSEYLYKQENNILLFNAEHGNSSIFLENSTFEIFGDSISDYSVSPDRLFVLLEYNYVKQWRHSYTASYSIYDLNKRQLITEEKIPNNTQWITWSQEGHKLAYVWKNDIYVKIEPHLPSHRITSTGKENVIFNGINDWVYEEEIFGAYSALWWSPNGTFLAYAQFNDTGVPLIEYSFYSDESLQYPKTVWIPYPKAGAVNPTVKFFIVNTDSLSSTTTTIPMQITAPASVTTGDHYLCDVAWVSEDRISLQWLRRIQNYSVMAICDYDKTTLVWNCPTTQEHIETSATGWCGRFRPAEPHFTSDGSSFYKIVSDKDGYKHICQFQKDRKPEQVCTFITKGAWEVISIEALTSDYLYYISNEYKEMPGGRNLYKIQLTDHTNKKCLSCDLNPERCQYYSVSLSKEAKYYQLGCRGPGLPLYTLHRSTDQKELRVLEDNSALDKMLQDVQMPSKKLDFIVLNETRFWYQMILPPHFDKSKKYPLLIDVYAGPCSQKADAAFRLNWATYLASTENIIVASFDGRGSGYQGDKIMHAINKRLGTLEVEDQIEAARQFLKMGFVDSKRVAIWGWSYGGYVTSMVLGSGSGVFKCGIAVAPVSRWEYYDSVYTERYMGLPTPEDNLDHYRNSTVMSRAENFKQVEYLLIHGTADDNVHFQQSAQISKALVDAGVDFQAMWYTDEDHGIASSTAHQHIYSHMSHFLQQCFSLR
smiles,measurement,setting,value
"CC[C@H](C)[C@H](NC(=O)[C@H](Cc1ccccc1)NC(=O)[C@H](CCC(=O)O)NC(=O)[C@H](CCCCN)NC(=O)[C@H](C)NC(=O)[C@H](C)NC(=O)[C@H](CCC(N)=O)NC(=O)CNC(=O)[C@H](CCC(=O)O)NC(=O)[C@H](CC(C)C)NC(=O)[C@H](Cc1ccc(O)cc1)NC(=O)[C@H](CO)NC(=O)[C@H](CO)NC(=O)[C@@H](NC(=O)[C@H](CC(=O)O)NC(=O)[C@H](CO)NC(=O)[C@@H](NC(=O)[C@H](Cc1ccccc1)NC(=O)[C@@H](NC(=O)CNC(=O)[C@H](CCC(=O)O)NC(=O)[C@H](C)NC(=O)[C@@H](N)Cc1c[nH]cn1)[C@@H](C)O)[C@@H](C)O)C(C)C)C(=O)N[C@@H](C)C(=O)N[C@@H](Cc1c[nH]c2ccccc12)C(=O)N[C@@H](CC(C)C)C(=O)N[C@H](C(=O)N[C@@H](CCCCN)C(=O)NCC(=O)N[C@@H](CCCNC(=N)N)C(N)=O)C(C)C [GLP-1, Glucagon-like peptide 1, reference compound]","effect on diuresis, natriuresis, chloruresis and kaliuresis","[1]; saline bolus followed by GLP-1 iv infusion alone (2.4, 4.8, 9.6 pmol/kg/min)","modest, albeit significant increase"
same,effect on GFR,"[2]; GLP-1 iv infusion alone, no dose-dependence, Figure 6a",modest increase
same,effect on RBF,"[3]; GLP-1 alone, only at the highest dose 9.6 pmol/kg/min, Figure 6c",significant effect
same,effect on plasma active GLP-1 levels,"[4]; exogenous GLP-1 infusion 2.4, 4.8 and 9.6 pmol/kg/min, further enhanced after MK-0626, Figure 4",step-wise increase
CN(C)C(=O)[C@@H](c1ccc(-c2ccc3ncnn3c2)cc1)[C@H](N)C(=O)N1CCC(F)(F)C1.Cl [MK-0626],"Insulin, baseline",[5]; [12],2.5 ± 0.2 ng/mL
same,"Insulin, treatment",[5]; [13],2.7 ± 0.1 ng/mL
same,effect on diuresis or natriuresis,[1]; MK-0626 1 mg/kg iv bolus alone,no significant effect
same,effect on GFR,"[2]; all animals that received MK-0626 1 mg/kg, not further enhanced by increasing doses of GLP-1, Figure 6b",increased
same,"Glucose, baseline",[6]; [12],134.9 ± 6.0 mg/dL
same,"Glucose, treatment",[6]; [13],135.8 ± 7.3 mg/dL
same,"Hematocrit, baseline",[7]; [12],40.0 ± 0.8%
same,"Hematocrit, treatment",[7]; [13],38.2 ± 0.6%
same,"plasma K+, baseline",[8]; [12],4.4 ± 0.14 mmol/L
same,"plasma K+, treatment",[8]; [13],4.2 ± 0.10 mmol/L
same,"HR, baseline",[9]; [12],381.2 ± 10.0 bpm
same,"HR, treatment",[9]; [14],380.9 ± 10.3 bpm
same,"urine pH, baseline",[10]; [12],6.07 ± 0.17
same,"urine pH, treatment",[10]; [14],6.25 ± 0.20
same,effect on RBF,"[3]; MK-0626 1 mg/kg alone, in the absence of GLP-1 administration",increased
same,"BP, baseline",[11]; [12],123.5 ± 3.7 mmHg
same,"BP, treatment",[11]; [14],121.9 ± 3.9 mmHg
same,"circulating GLP-1 level, baseline before MK-0626 alone","[4]; group MK-0626 alone, baseline, ELISA, active GLP-1",3.4 pmpol/L
same,circulating GLP-1 level after MK-0626 alone,"[4]; MK-0626 1 mg/kg iv bolus alone (no exogenous GLP-1), ELISA, active GLP-1",5.5 pmol/L
same,"Plasma DPP4 activity, inhibition",DPP4,greater than 90%
